What was measured:
Format in all cases: in vivo
[1] = system: barnyardgrass (Echinochloa crus-galli); assay: Test G Post-Emergence Protocol; details: Echinochloa crus-galli, post-emergence, 312 h; for pest or weed control at 15.625 g/ha: 15.625 g ai/ha, evaluated after 13 days (100=total damage to plant; 0=no damage to plant), read-out: Barnyardgrass damage rating; for pest or weed control at 62.5 g/ha: 62.5 g ai/ha, read-out: Barnyardgrass damage rating (100=total damage to plant; 0=no damage to plant); for pest or weed control at 62.5 g/ha / pest or weed control at 250 g/ha: evaluated after 13 days; for pest or weed control at 250 g/ha: 250 g ai/ha, read-out: damage to plant, Barnyardgrass (100=total damage to plant; 0=no damage to plant)
Outline: (§1)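 Damage was rated 13 days after treatment from 0 (none) to 100 (plant killed). Compound was applied as a spray at 15.625, 62.5 or 250 g/ha in 50:50 acetone/water containing 0.5% Tween 20, onto 8-day-old potted plants kept in a glasshouse (24/16 °C, 14 h light, 65% humidity).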

[2] = system: corn (Zea mays); assay: Test G Post-Emergence Protocol; details: Zea mays, post-emergence, 312 h; for plant injury at 15.625 g/ha: 15.625 g ai/ha, evaluated after 13 days (100=total damage to plant; 0=no damage to plant), read-out: Corn damage rating; for plant injury at 62.5 g/ha: 62.5 g ai/ha, read-out: Corn damage rating (100=total damage to plant; 0=no damage to plant); for plant injury at 62.5 g/ha / plant injury at 250 g/ha: evaluated after 13 days; for plant injury at 250 g/ha: 250 g ai/ha, read-out: damage to plant, Corn (100=total damage to plant; 0=no damage to plant)
Outline: as §1

[3] = system: ivy-leaved morning glory (Ipomoea hederacea); assay: Test G Post-Emergence Protocol; details: Ipomoea, post-emergence, 312 h; for pest or weed control at 15.625 g/ha: 15.625 g ai/ha, evaluated after 13 days (100=total damage to plant; 0=no damage to plant), read-out: Morningglory, Ivy-leaved damage rating; for pest or weed control at 62.5 g/ha: 62.5 g ai/ha, read-out: Morningglory, Ivy-leaved damage rating (100=total damage to plant; 0=no damage to plant); for pest or weed control at 62.5 g/ha / pest or weed control at 250 g/ha: evaluated after 13 days; for pest or weed control at 250 g/ha: 250 g ai/ha, read-out: damage to plant, Morningglory, Ivy-leaved (100=total damage to plant; 0=no damage to plant)
Outline: as §1

[4] = system: velvetleaf (Abutilon theophrasti); assay: Test G Post-Emergence Protocol; details: Abutilon theophrasti, post-emergence, 312 h; for pest or weed control at 15.625 g/ha: 15.625 g ai/ha, evaluated after 13 days (100=total damage to plant; 0=no damage to plant), read-out: Velvetleaf damage rating; for pest or weed control at 62.5 g/ha: 62.5 g ai/ha, read-out: Velvetleaf damage rating (100=total damage to plant; 0=no damage to plant); for pest or weed control at 62.5 g/ha / pest or weed control at 250 g/ha: evaluated after 13 days; for pest or weed control at 250 g/ha: 250 g ai/ha, read-out: damage to plant, Velvetleaf (100=total damage to plant; 0=no damage to plant)
Outline: as §1

[5] = system: giant foxtail (Setaria faberi); assay: Test G Post-Emergence Protocol; details: Setaria faberi, post-emergence, 312 h; for pest or weed control at 15.625 g/ha: 15.625 g ai/ha, evaluated after 13 days (100=total damage to plant; 0=no damage to plant), read-out: Foxtail, Giant damage rating; for pest or weed control at 62.5 g/ha: 62.5 g ai/ha, read-out: Foxtail, Giant damage rating (100=total damage to plant; 0=no damage to plant); for pest or weed control at 62.5 g/ha / pest or weed control at 250 g/ha: evaluated after 13 days; for pest or weed control at 250 g/ha: 250 g ai/ha, read-out: damage to plant, Foxtail, Giant (100=total damage to plant; 0=no damage to plant)
Outline: as §1

[6] = system: redroot pigweed (Amaranthus retroflexus); assay: Test G Post-Emergence Protocol; details: Amaranthus retroflexus, post-emergence, 312 h; for pest or weed control at 15.625 g/ha: 15.625 g ai/ha, evaluated after 13 days (100=total damage to plant; 0=no damage to plant), read-out: Pigweed, Redroot damage rating; for pest or weed control at 62.5 g/ha: 62.5 g ai/ha, read-out: Pigweed, Redroot damage rating (100=total damage to plant; 0=no damage to plant); for pest or weed control at 62.5 g/ha / pest or weed control at 250 g/ha: evaluated after 13 days; for pest or weed control at 250 g/ha: 250 g ai/ha, read-out: damage to plant, Pigweed, Redroot (100=total damage to plant; 0=no damage to plant)
Outline: as §1

[7] = system: barnyardgrass (Echinochloa crus-galli); assay: Test G Pre-Emergence Protocol; details: Echinochloa crus-galli, pre-emergence, 312 h, evaluated after 13 days; for pest or weed control at 15.625 g/ha: 15.625 g ai/ha, read-out: Barnyard grass damage rating (100=total damage to plant; 0=no damage to plant); for pest or weed control at 62.5 g/ha: 62.5 g ai/ha, 100=total damage to plant, 0=no damage to plant, read-out: plant damage rating, Barnyardgrass; for pest or weed control at 250 g/ha: 250 g ai/ha, read-out: Barnyardgrass damage rating (100=total damage to plant; 0=no damage to plant)
Outline: (§2)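 Herbicidal effect was rated 13 days post-application on a scale where 100 equals total damage. Spraying took place the day after sowing, using 15.625, 62.5 or 250 g/ha of compound in a 50:50 acetone/water solution with 0.5% Tween 20.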

[8] = system: corn (Zea mays); assay: Test G Pre-Emergence Protocol; details: Zea mays, pre-emergence, 312 h, evaluated after 13 days; for plant injury at 15.625 g/ha: 15.625 g ai/ha; for plant injury at 15.625 g/ha / plant injury at 250 g/ha: read-out: Corn damage rating (100=total damage to plant; 0=no damage to plant); for plant injury at 62.5 g/ha: 62.5 g ai/ha, 100=total damage to plant, 0=no damage to plant, read-out: plant damage rating, Corn; for plant injury at 250 g/ha: 250 g ai/ha
Outline: as §2

[9] = system: ivy-leaved morning glory (Ipomoea hederacea); assay: Test G Pre-Emergence Protocol; details: Ipomoea, pre-emergence, 312 h, evaluated after 13 days; for pest or weed control at 15.625 g/ha: 15.625 g ai/ha, read-out: Morning-glory, Ivy-leaved damage rating (100=total damage to plant; 0=no damage to plant); for pest or weed control at 62.5 g/ha: 62.5 g ai/ha, 100=total damage to plant, 0=no damage to plant, read-out: plant damage rating, Morningglory, Ivy-leaved; for pest or weed control at 250 g/ha: 250 g ai/ha, read-out: Morningglory, Ivy-leaved damage rating (100=total damage to plant; 0=no damage to plant)
Outline: as §2

[10] = system: velvetleaf (Abutilon theophrasti); assay: Test G Pre-Emergence Protocol; details: Abutilon theophrasti, pre-emergence, 312 h, evaluated after 13 days; for pest or weed control at 15.625 g/ha: 15.625 g ai/ha; for pest or weed control at 15.625 g/ha / pest or weed control at 250 g/ha: read-out: Velvetleaf damage rating (100=total damage to plant; 0=no damage to plant); for pest or weed control at 62.5 g/ha: 62.5 g ai/ha, 100=total damage to plant, 0=no damage to plant, read-out: plant damage rating, Velvetleaf; for pest or weed control at 250 g/ha: 250 g ai/ha
Outline: as §2

[11] = system: giant foxtail (Setaria faberi); assay: Test G Pre-Emergence Protocol; details: Setaria faberi, pre-emergence, 312 h, evaluated after 13 days; for pest or weed control at 15.625 g/ha: 15.625 g ai/ha; for pest or weed control at 15.625 g/ha / pest or weed control at 250 g/ha: read-out: Foxtail, Giant damage rating (100=total damage to plant; 0=no damage to plant); for pest or weed control at 62.5 g/ha: 62.5 g ai/ha, 100=total damage to plant, 0=no damage to plant, read-out: plant damage rating, Foxtail, Giant; for pest or weed control at 250 g/ha: 250 g ai/ha
Outline: as §2

[12] = system: redroot pigweed (Amaranthus retroflexus); assay: Test G Pre-Emergence Protocol; details: Amaranthus retroflexus, pre-emergence, 312 h, evaluated after 13 days; for pest or weed control at 15.625 g/ha: 15.625 g ai/ha; for pest or weed control at 15.625 g/ha / pest or weed control at 250 g/ha: read-out: Pigweed, Redroot damage rating (100=total damage to plant; 0=no damage to plant); for pest or weed control at 62.5 g/ha: 62.5 g ai/ha, 100=total damage to plant, 0=no damage to plant, read-out: plant damage rating, Pigweed, Redroot; for pest or weed control at 250 g/ha: 250 g ai/ha
Outline: as §2

SMILES | pest or weed control at 15.625 g/ha [1] [%] | pest or weed control at 62.5 g/ha [1] [%] | pest or weed control at 250 g/ha [1] [%] | plant injury at 15.625 g/ha [2] [%] | plant injury at 62.5 g/ha [2] [%] | plant injury at 250 g/ha [2] [%] | pest or weed control at 15.625 g/ha [3] [%] | pest or weed control at 62.5 g/ha [3] [%] | pest or weed control at 250 g/ha [3] [%] | pest or weed control at 15.625 g/ha [4] [%] | pest or weed control at 62.5 g/ha [4] [%] | pest or weed control at 250 g/ha [4] [%] | pest or weed control at 15.625 g/ha [5] [%] | pest or weed control at 62.5 g/ha [5] [%] | pest or weed control at 250 g/ha [5] [%] | pest or weed control at 15.625 g/ha [6] [%] | pest or weed control at 62.5 g/ha [6] [%] | pest or weed control at 250 g/ha [6] [%] | pest or weed control at 15.625 g/ha [7] [%] | pest or weed control at 62.5 g/ha [7] [%] | further results
CN1C[C@@H](c2ccc(C(F)(F)F)cc2)[C@H](C(=O)Nc2ccc(Cl)nc2)C1=O (racemic) [Compound 1525] | 0 | 0 | 0 | 0 | 0 | 10 | 0 | 0 | 20 | 0 | 0 | 0 | 0 | 0 | 10 | 0 | 0 | 0 | 0 | 0 | pest or weed control at 250 g/ha [7]: 40%; plant injury at 15.625 g/ha [8]: 0%; plant injury at 62.5 g/ha [8]: 0%; plant injury at 250 g/ha [8]: 0%; pest or weed control at 15.625 g/ha [9]: 0%; pest or weed control at 62.5 g/ha [9]: 0%; pest or weed control at 250 g/ha [9]: 0%; pest or weed control at 15.625 g/ha [10]: 0%; pest or weed control at 62.5 g/ha [10]: 0%; pest or weed control at 250 g/ha [10]: 0%; pest or weed control at 15.625 g/ha [11]: 0%; pest or weed control at 62.5 g/ha [11]: 10%; pest or weed control at 250 g/ha [11]: 30%; pest or weed control at 15.625 g/ha [12]: 0%; pest or weed control at 62.5 g/ha [12]: 0%; pest or weed control at 250 g/ha [12]: 0%
CN1C[C@@H](c2ccc(C(F)(F)F)cc2)[C@H](C(=O)Nc2cn(C)nn2)C1=O (racemic) [Compound 1527] | 0 | 0 | 0 | 10 | 10 | 10 | 0 | 0 | 0 | 0 | 0 | 0 | 0 | 0 | 0 | 0 | 0 | 0 | 0 | 0 | pest or weed control at 250 g/ha [7]: 0%; plant injury at 15.625 g/ha [8]: 0%; plant injury at 62.5 g/ha [8]: 0%; plant injury at 250 g/ha [8]: 0%; pest or weed control at 15.625 g/ha [9]: 0%; pest or weed control at 62.5 g/ha [9]: 0%; pest or weed control at 250 g/ha [9]: 0%; pest or weed control at 15.625 g/ha [10]: 0%; pest or weed control at 62.5 g/ha [10]: 0%; pest or weed control at 250 g/ha [10]: 0%; pest or weed control at 15.625 g/ha [11]: 0%; pest or weed control at 62.5 g/ha [11]: 0%; pest or weed control at 250 g/ha [11]: 0%; pest or weed control at 15.625 g/ha [12]: 0%; pest or weed control at 62.5 g/ha [12]: 0%; pest or weed control at 250 g/ha [12]: 0%
CN1C[C@@H](c2ccc(C(F)(F)F)cc2)[C@H](C(=O)Nc2cnn(C)n2)C1=O (racemic) [Compound 1531] | 0 | 0 | 0 | 0 | 0 | 10 | 0 | 0 | 0 | 0 | 0 | 0 | 0 | 0 | 0 | 0 | 0 | 0 | 0 | 0 | pest or weed control at 250 g/ha [7]: 0%; plant injury at 15.625 g/ha [8]: 0%; plant injury at 62.5 g/ha [8]: 0%; plant injury at 250 g/ha [8]: 0%; pest or weed control at 15.625 g/ha [9]: 0%; pest or weed control at 62.5 g/ha [9]: 0%; pest or weed control at 250 g/ha [9]: 0%; pest or weed control at 15.625 g/ha [10]: 0%; pest or weed control at 62.5 g/ha [10]: 0%; pest or weed control at 250 g/ha [10]: 0%; pest or weed control at 15.625 g/ha [11]: 0%; pest or weed control at 62.5 g/ha [11]: 0%; pest or weed control at 250 g/ha [11]: 0%; pest or weed control at 15.625 g/ha [12]: 0%; pest or weed control at 62.5 g/ha [12]: 0%; pest or weed control at 250 g/ha [12]: 0%

Reference: patent publication US12077503B2, “Substituted cyclic amides and their use as herbicides” (FMC CORPORATION, priority 2015, dated 2024)
